This note sets out measurements from patent US20240245783A1, “METALLO-BETA-LACTAMASE INHIBITOR” (priority 2021, published 2024).

Experiment [1] relates to E. coli clinical isolate expressing IMP-1. Briefly: Meropenem MIC against E. coli clinical isolate expressing IMP-1 (Test Example 10). The format is cell-based. On the procedure:
The enhancing effect of DTPA-ADCA on the susceptibility of E. coli clinical isolate expressing IMP-1 to a carbapenem antibacterial agent (meropenem) was evaluated by the following method. The E. coli clinical isolate was cultured overnight with shaking in LB medium. The bacterial solution was diluted to 1/1000 with LB medium, used as a test bacterial solution, and then seeded in a 96-well plate. Meropenem (Wako Pure Chemical Industries, Ltd.) was added to the bacterial solution, thereby performing two-step dilution from a maximum of 10 μg/ml. The bacteria were cultured in an incubator at 37° C. for one day, and growth at that time was measured by turbidity (655 nm). The meropenem concentration at which no bacterial growth had been observed was defined as the minimum inhibitory concentration.
The effect of DTPA-ADCA on the susceptibility of an E. coli clinical isolate to meropenem was evaluated by the following method. The E. coli clinical isolate was cultured overnight with shaking in LB medium. The bacterial solution was diluted to 1/1000 with LB medium, used as the test bacterial solution, and then seeded in a 96-well plate. Meropenem (Wako Pure Chemical Industries, Ltd.) was added to this bacterial solution in the range of 0.1 μg/ml to 0.005 μg/ml. Here, DTPA or DTPA-ADCA was used in combination therewith at a concentration of […], and the effect on bacterial growth was examined. The bacteria were cultured in an incubator at 37° C. for one day, and the growth at that time was measured by turbidity (655 nm).
FIG. 20 depicts the results. Multidrug-resistant E. coli was cultured with compounds having the indicated concentrations and the bacterial load was assessed by turbidity after 24 hours. […] Combined use of DTPA-ADCA (20 μM) reduced the minimum inhibitory concentration of meropenem to […] and enhanced the antibacterial activity by 100 times.

Experiment [2] deals with T1, recombinant metallo-β-lactamase (recombinant IMP-1) (Serratia marcescens, UniProt P52699).
T1 construct: made in house; host or cells: E. coli BL21(DE3), vector pET29a
Put plainly: Inhibition of meropenem degradation by recombinant IMP-1 (Test Example 1). Type of experiment: biochemical. The following applies: compound at 1, 5, and 10 μM; 100 μM meropenem; 1 hour at 37° C.; tandem mass spectrometry. On the procedure: Based on the description of NON PATENT LITERATURE 5, a recombinant metallo-β-lactamase (recombinant IMP-1) was prepared. “NG_049172” of Database: RefSeq as the IMP-1 gene was incorporated into vector pET29a (Novagen), and then expressed in E. coli BL21(DE3) (Invitrogen).
Recombinant IMP-1 was dissolved in a 50 mM sodium phosphate buffer (pH 7.6) at a concentration of 0.25 μg/ml. Furthermore, zinc chloride was added to the solution in such a manner that the concentration was 0.1 μM. The resultant in this state was subjected to preincubation at 37° C. for 10 minutes. […] After 1 hour of incubation at 37° C. residual meropenem was quantified by tandem mass spectrometry. Meropenem was quantified by a multiple reaction monitoring method. […]
Reverse phase column: YMC-Triat C18 Plus column (2.1×50 mm); column temperature: 45° C.; mobile phase (2 liquids): mobile phase A (0.1% formic acid aqueous solution), mobile phase B (acetonitrile); gradient: increase from 1% B to 80% B for 10 minutes, keep it at 80% B for 0.5 minutes, and then return it to 1% B over 1 minute. […] Detection: multiple reaction monitoring, parent ion at 384.2, child ion at 68.1; measured in a positive ion mode.
FIG. 4 depicts a graph showing the results of quantifying the peak area of meropenem detected in FIG. 3. The peak of meropenem alone is expressed as 100%.

The subject of experiment [3] is IMP-1-expressing E. coli. Briefly: Susceptibility of IMP-1-expressing E. coli to meropenem (Test Example 5). The format is cell-based. To be noted: compound at 25 μM; meropenem diluted from 2 μM; turbidity 655 nm after one day. As to the method: Based on the description of NON PATENT LITERATURE 5, IMP-1-expressing E. coli was prepared.
The effects of DTPA-cefalexin and NOTA-cefalexin on the susceptibility of IMP-1-expressing E. coli to a carbapenem antibacterial agent (meropenem) were evaluated by the following method. The IMP-1-expressing E. coli was cultured overnight with shaking in LB medium containing 100 μg/ml ampicillin. The bacterial solution was diluted to 1/200 with LB medium, used as a test bacterial solution, and then seeded in a 96-well plate. Meropenem (Wako Pure Chemical Industries, Ltd.) was added to the bacterial solution, thereby performing two-step dilution from a maximum of 2 μM. The bacteria were cultured in an incubator at 37° C. for one day, and the growth at that time was measured by turbidity (655 nm). FIGS. 8 and 9 depict the results.
FIG. 8 depicts the susceptibility to meropenem when DTPA-cefalexin was added at 25 μM, or EDTA or DTPA was added at 25 μM. FIG. 9 depicts susceptibility to meropenem when NOTA-cefalexin was added at 25 μM. Those denoted as “control” in the figure show the results of adding only meropenem.

The subject of experiment [4] is IMP-1-expressing Klebsiella pneumoniae. Put plainly: Survival of Leukopenia mice infected with IMP-1-expressing Klebsiella pneumoniae (Test Example 6). To be noted: meropenem 10 mg/kg and compound 1 50 mg/kg subcutaneously 30 min after infection; 48 hours; Leukopenia ddY mice. The format is in vivo. As to the method:
DTPA-conjugated cefalexin (compound 1)'s effect of enhancing the drug susceptibility of pathogenic bacteria was examined by an in vivo experiment using bacteria-infected mice. To prepare a compromised Leukopenia mouse model, 0.1 mL of cyclophosphamide monohydrate (Sigma-Aldrich) prepared with PBS was administered intraperitoneally to 4-week-old male ddY mice (Japan SLC) at 250 mg/kg at 4 days before infection. IMP-1-expressing Klebsiella pneumoniae used herein was a clinical isolate provided by Kumamoto University Hospital. The bacteria were cultured overnight with shaking in LB medium at 37° C., then diluted 50-fold with LB medium, and further cultured with shaking, so that the turbidity (600 nm) was 1.5 or higher. The bacteria were centrifuged to remove the medium, washed twice with PBS, and then diluted with PBS to 5×10^5 CFU/mL. In the mouse infection experiment, each Leukopenia mouse was infected with 0.1 mL (5×10^4 CFU) of IMP-1-expressing Klebsiella pneumoniae by intraperitoneal injection. Thirty minutes after infection, 0.1 mL of a mixed solution containing meropenem (Wako Pure Chemical Industries, Ltd.) and compound 1 (DTPA-CEF) was subcutaneously administered to each mouse of a treatment mouse group at 10 mg/kg and 50 mg/kg, respectively. […] Forty-eight hours after infection, mice were assessed for viability. […]

Setting [5] is: combined use of DTPA-ADCA (20 μM).

T1 sequence (P52699 19-246 limits assumed): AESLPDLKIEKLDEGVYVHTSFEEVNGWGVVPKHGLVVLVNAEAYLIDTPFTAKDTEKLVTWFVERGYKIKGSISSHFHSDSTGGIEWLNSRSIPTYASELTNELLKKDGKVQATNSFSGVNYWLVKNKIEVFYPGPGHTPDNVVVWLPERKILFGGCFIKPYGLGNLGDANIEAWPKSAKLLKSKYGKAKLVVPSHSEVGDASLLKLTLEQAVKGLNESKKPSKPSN

With `O=C(O)CN(CCN(CC(=O)O)CC(=O)O)CCN(CC(=O)O)CC(=O)O` [DTPA, reference compound], the “effect on the minimum inhibitory concentration of meropenem” value in experiment [1] (DTPA used in combination with meropenem) is recorded as “had no such effect”.

For `CC1=C(C(=O)O)N2C(=O)[C@@H](NC(=O)C(NC(=O)CN(CCN(CCN(CC(=O)O)CC(=O)O)CC(=O)O)CC(=O)O)c3ccccc3)[C@H]2SC1` (stereo partly shown) [compound 1, DTPA-conjugated cefalexin], the “inhibition of meropenem degradation by IMP-1 (residual meropenem)” value in experiment [2] was “inhibited the degradation of meropenem”. Moreover, the “effect on susceptibility of IMP-1-expressing E. coli to meropenem” value in experiment [3] is reported as “metallo-β-lactamase-expressing bacteria are killed by the effect of the carbapenem antibacterial agent”. Also, the percent survival in experiment [4] is 50%.

Turning to `CC1=C(C(=O)O)N2C(=O)[C@@H](NC(=O)CN(CCN(CCN(CC(=O)O)CC(=O)O)CC(=O)O)CC(=O)O)[C@H]2SC1` [compound 6, DTPA-conjugated ADCA], in experiment [1] (setting [5]), the “enhancement of the antibacterial activity of meropenem” value stood at 100 times and the “minimum inhibitory concentration of meropenem” value was 10 µg/mL.

On to `CC1=C(C(=O)O)N2C(=O)[C@@H](NC(=O)[C@H](NC(=O)CN3CCN(CC(=O)O)CCN(CC(=O)O)CC3)c3ccccc3)[C@H]2SC1` [compound 7, NOTA-Conjugated Cefalexin], for which the “effect on susceptibility of IMP-1-expressing E. coli to meropenem” value in experiment [3] is reported as “metallo-β-lactamase-expressing bacteria are killed by the effect of the carbapenem antibacterial agent”.
